Source: ChEMBL document CHEMBL1201862, “PubChem BioAssay data set” (2004)
Activity calls are given as the source filed them.

Tests used:
[1] = tested on: HEK293; test: cells; details: Homo sapiens
[2] = target: Cytochrome P450 2D6 (Homo sapiens, UniProt P10635);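 also: CYP2D6 member of a cytochrome P450 panel assay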
[3] = tested on: HEK293; test: cells; details: Homo sapiens; remark: listed apart in the source
[4] = target: T1, Cytochrome P450 1A2 (Homo sapiens, UniProt P05177);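 also: PubChem cytochrome P450 panel assay, CYP1A2 panel member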
T1 sequence (P05177 whole entry): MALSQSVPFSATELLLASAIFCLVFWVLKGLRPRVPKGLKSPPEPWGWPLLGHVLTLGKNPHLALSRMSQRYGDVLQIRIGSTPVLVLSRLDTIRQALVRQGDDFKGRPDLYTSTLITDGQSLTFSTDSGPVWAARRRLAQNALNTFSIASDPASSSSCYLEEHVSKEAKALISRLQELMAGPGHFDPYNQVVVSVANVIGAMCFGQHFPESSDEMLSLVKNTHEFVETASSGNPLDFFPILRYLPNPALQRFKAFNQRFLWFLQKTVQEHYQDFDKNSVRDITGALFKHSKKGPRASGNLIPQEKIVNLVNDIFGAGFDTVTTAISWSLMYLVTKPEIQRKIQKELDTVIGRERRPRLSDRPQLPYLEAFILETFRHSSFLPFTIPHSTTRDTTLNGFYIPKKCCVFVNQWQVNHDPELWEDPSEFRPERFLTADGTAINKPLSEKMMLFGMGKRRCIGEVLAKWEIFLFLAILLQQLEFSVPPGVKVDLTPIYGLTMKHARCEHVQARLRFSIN

[5] = target: Cytochrome P450 2C9 (Homo sapiens, UniProt P11712)
Cytochrome P450 2C9, sequence (P11712 whole entry): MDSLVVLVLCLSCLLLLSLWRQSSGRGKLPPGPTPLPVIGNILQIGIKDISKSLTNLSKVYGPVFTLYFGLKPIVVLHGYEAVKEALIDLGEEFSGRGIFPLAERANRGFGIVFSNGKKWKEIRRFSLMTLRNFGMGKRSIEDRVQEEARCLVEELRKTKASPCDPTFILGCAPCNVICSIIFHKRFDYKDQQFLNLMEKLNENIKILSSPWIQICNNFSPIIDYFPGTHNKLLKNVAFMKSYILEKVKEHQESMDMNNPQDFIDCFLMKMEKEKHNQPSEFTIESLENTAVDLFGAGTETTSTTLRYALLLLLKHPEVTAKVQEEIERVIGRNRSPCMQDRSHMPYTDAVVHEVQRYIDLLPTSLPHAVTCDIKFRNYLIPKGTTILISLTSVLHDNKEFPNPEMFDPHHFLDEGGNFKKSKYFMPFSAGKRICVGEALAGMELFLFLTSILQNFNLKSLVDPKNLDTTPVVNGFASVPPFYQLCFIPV

[6] = cytotoxicity in HMLE control line with eGFP shRNA, dose response, counter-screen for HMLE_sh_ECad selective toxicity project, cell-based, HMLE_sh_eGFP, luminescence (AID 463074); type: functional, Homo sapiens;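 also: HMLE human mammary epithelial cells expressing control shRNA against eGFP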
[7] = Luminescence Cell-Based Dose Retest to Confirm Inhibitors of Cancer Stem Cells. [Related pubchem assays (depositor defined):AID2717, AID2721]; type: functional; details: Homo sapiens
[8] = tested on: HEK293; test: cells; details: Homo sapiens; remark: listed apart in the source
[9] = tested on: HEK293; test: NOD1 signaling inhibitors, primary screen, cell-based, luminescence, uHTS (AID 1578); type: functional; details: Homo sapiens
[10] = tested on: HEK293; test: cells; type: functional, cell-based; details: Homo sapiens
[11] = tested on: HEK293; test: cells; type: functional, cell-based; details: Homo sapiens; remark: listed apart in the source
[12] = tested on: HEK293; test: cells; type: functional, cell-based; details: Homo sapiens; remark: listed apart in the source
[13] = tested on: HEK293; test: NOD2 signaling inhibitors in MDP-stimulated cells, cell-based, uHTS, luminescence (AID 2001); type: functional; details: Homo sapiens
[14] = target: T2, Replicative DNA helicase DnaB (Mycobacterium tuberculosis, UniProt P9WMR3); test: DnaB intein splicing inhibitors, dose response, biochemical, cell-free fluorescence (AID 449749); type: functional
T2 sequence (P9WMR3 whole entry): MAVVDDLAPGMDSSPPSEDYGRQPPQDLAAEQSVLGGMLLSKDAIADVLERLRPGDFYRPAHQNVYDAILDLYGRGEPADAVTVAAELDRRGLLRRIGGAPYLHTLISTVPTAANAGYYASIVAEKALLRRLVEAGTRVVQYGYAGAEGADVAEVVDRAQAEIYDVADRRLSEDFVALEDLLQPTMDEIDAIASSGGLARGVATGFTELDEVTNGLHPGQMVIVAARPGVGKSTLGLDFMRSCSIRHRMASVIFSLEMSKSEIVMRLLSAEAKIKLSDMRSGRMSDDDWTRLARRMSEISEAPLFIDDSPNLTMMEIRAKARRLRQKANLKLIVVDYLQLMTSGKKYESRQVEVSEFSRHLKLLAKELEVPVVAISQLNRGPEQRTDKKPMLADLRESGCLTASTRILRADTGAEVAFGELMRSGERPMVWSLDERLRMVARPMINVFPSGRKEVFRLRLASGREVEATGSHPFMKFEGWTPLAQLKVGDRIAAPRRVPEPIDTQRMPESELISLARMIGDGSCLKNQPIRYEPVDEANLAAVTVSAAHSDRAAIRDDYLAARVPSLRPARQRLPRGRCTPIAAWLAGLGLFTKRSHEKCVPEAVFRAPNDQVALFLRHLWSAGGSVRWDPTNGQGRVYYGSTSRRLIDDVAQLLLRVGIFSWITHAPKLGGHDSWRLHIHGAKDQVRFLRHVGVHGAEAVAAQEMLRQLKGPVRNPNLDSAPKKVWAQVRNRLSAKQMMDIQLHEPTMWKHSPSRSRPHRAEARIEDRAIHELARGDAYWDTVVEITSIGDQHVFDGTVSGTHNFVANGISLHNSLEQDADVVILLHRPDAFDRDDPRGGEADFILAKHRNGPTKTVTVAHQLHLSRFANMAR

[15] = target: T3, Protein RecA (Mycobacterium tuberculosis, UniProt P9WHJ3); test: Fluorescence Cell-Free Homogeneous Dose Retest to Identify Inhibitors of RecA-Intein Splicing Activity. [Related pubchem assays (depositor defined):AID2097, AID2223, AID489010, AID492950]; type: functional
T3 sequence (P9WHJ3 whole entry): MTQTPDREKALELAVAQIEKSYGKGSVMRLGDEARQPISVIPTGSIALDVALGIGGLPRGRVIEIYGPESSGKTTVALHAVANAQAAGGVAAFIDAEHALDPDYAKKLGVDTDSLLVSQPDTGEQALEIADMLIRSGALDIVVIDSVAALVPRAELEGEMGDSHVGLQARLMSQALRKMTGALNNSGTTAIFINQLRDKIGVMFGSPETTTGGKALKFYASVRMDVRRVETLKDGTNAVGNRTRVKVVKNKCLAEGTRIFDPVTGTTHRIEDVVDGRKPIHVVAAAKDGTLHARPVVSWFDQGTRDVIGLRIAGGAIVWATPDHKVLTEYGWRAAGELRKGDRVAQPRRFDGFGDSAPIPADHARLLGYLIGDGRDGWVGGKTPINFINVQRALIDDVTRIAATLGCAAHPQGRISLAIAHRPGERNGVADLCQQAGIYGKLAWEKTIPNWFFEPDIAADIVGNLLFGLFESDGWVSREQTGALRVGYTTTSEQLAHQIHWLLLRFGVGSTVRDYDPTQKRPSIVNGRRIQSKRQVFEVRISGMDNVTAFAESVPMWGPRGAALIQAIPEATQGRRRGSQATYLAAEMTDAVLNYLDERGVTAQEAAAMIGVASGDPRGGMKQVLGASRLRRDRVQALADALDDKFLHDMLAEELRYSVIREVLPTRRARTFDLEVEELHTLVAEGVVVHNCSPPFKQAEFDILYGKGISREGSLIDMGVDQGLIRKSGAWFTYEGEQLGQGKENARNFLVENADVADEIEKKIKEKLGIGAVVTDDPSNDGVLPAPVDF

[16] = target: G-protein coupled receptor 55 (Homo sapiens, UniProt Q9Y2T6); test: GPR55 antagonists, SAR follow-up, counter-screen for GPR35 antagonist project, imaging, image-based (AID 2397); type: functional
G-protein coupled receptor 55, sequence (Q9Y2T6 whole entry): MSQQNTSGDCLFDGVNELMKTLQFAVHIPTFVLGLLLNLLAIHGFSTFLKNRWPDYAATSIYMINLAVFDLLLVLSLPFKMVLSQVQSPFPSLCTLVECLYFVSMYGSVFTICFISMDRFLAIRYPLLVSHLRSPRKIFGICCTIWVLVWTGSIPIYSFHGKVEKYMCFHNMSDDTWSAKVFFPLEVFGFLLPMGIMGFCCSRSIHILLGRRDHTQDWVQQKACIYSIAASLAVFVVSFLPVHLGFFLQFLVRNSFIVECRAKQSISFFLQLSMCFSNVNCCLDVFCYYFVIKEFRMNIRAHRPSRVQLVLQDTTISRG

Cytochrome P450 2D6, sequence (P10635 whole entry): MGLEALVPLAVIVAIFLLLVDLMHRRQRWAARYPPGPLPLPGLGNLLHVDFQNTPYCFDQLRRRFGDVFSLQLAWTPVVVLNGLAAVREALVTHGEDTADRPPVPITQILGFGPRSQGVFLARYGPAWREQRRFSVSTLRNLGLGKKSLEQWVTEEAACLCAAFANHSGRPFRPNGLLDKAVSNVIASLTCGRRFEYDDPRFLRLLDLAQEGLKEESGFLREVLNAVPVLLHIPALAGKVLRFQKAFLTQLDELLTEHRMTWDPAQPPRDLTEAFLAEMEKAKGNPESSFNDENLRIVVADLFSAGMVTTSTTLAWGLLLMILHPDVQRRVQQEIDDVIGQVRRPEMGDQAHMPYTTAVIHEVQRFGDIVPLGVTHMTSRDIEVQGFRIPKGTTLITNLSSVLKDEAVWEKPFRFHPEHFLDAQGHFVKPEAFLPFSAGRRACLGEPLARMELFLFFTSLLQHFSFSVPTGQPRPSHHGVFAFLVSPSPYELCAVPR

## C=CCn1c(SC(C)C(=O)NCc2ccc3c(c2)OCO3)nc2scc(-c3ccccc3)c2c1=O (stereo not drawn)
[1]
  EC50: > 59.7 µM (inactive)
[2]
  AC50: 3.16 µM (inconclusive)
[3]
  EC50: > 59.7 µM (inactive)

## C=C[C@H]1CN2CC[C@@H]1C[C@H]2[C@@H](O)c1ccnc2ccc(OC)cc12.Cl.O
[4]
  AC50: inactive
[5]
  AC50: inactive

## C=CCc1cc(Cl)ccc1OCCOCCNC(C)CC (stereo not drawn)
[6]
  AC50: 34.5 µM (active)
[7]
  AC50: 21.5 µM (active)

## Cc1ccc(CSc2nc(O)c(C#N)c(-c3ccccc3)n2)cc1
[8]
  IC50: > 20 µM (inactive)
[9]
  EC50: 9.39 µM (active)
[10]
  IC50: > 20 µM (inactive)
[11]
  IC50: > 20 µM (inactive)
[12]
  IC50: > 20 µM (inactive)
[13]
  IC50: 12.9 µM (inactive)

## COc1cc(NC(=O)c2ccnc(N)c2)cc(C(=O)Nc2cccc(C(F)(F)F)c2)c1
[6]
  AC50: 39.5 µM (active)
[7]
  AC50: 17.4 µM (active)

## O=C(CCCN1C(=O)/C(=C\c2ccccc2)SC1=S)Nc1ccc(O)cc1
[14]
  AC50: 39 µM (active)
[15]
  EC50: 27.8 µM (active)
[16]
  IC50: > 32 µM (inactive)
